From patent US8541474B2 (Hanall Biopharma Co., Ltd., priority 2007, dated 2013)
Structures can show the parent of a compound that is named as a salt.

Assays:
[1] = tested on: Mouse; conditions: Intraperitoneal; cited from earlier work
[2] = tested on: male ICR mice; experiment: Test of drop in blood glucose after meal (OGTT with sucrose load); type: in vivo; conditions: for effect of drop in blood glucose compared to G8 (excipient control): 20 minutes after administration of sucrose
[3] = Measurement of hygroscopicity; type: physicochemical; conditions: 95% RH, 25° C.
[4] = tested on: diabetes mellitus induced experimental animal; experiment: Effect of drop in blood glucose level in diabetes mellitus induced (alloxan) rats; type: in vivo; conditions: for glucose concentration in blood: 0.05 mg as metformin, peritoneally
Text: This test supports the effect of the present invention.

[5] = tested on: Human being; conditions: Oral; cited from earlier work
[6] = 100 mg/kg oral, 0 min after sucrose 2 g/kg
[7] = 100 mg/kg oral, 40 min after sucrose 2 g/kg
[8] = 100 mg/kg oral, 60 min after sucrose 2 g/kg
[9] = 100 mg/kg oral, 90 min after sucrose 2 g/kg
[10] = 100 mg/kg oral, 120 min after sucrose 2 g/kg
[11] = 100 mg/kg oral, 240 min after sucrose 2 g/kg
[12] = 200 mg/kg oral, 0 min after sucrose 2 g/kg
[13] = 200 mg/kg oral, 20 min after sucrose 2 g/kg
[14] = 200 mg/kg oral, 40 min after sucrose 2 g/kg
[15] = 200 mg/kg oral, 60 min after sucrose 2 g/kg
[16] = 200 mg/kg oral, 90 min after sucrose 2 g/kg
[17] = 200 mg/kg oral, 120 min after sucrose 2 g/kg
[18] = 200 mg/kg oral, 240 min after sucrose 2 g/kg
[19] = 400 mg/kg oral, 0 min after sucrose 2 g/kg
[20] = 400 mg/kg oral, 20 min after sucrose 2 g/kg
[21] = 400 mg/kg oral, 40 min after sucrose 2 g/kg
[22] = 400 mg/kg oral, 60 min after sucrose 2 g/kg
[23] = 400 mg/kg oral, 90 min after sucrose 2 g/kg
[24] = 400 mg/kg oral, 120 min after sucrose 2 g/kg
[25] = 400 mg/kg oral, 240 min after sucrose 2 g/kg

Cl [Hydrochloric acid]
Dose (LD50) [1]: 40 mg/kg

CN(C)C(=N)N=C(N)N [Metformin hydrochloride, metformin hydrochloride, reference compound]
glucose concentration in blood [2, 6]: 104.00 ± 6.53 mg/dL
glucose concentration in blood ([2]; 100 mg/kg oral, 20 min after sucrose 2 g/kg): 246.00 ± 16.70 mg/dL
glucose concentration in blood [2, 7]: 194.38 ± 8.02 mg/dL
glucose concentration in blood [2, 8]: 151.50 ± 5.45 mg/dL
glucose concentration in blood [2, 9]: 122.38 ± 4.69 mg/dL
glucose concentration in blood [2, 10]: 111.75 ± 6.45 mg/dL
glucose concentration in blood [2, 11]: 83.63 ± 3.49 mg/dL
effect of drop in blood glucose compared to G8 (excipient control) ([2]; 200 mg/kg (G3, G6)): effect of drop in blood glucose could be observed
glucose concentration in blood [2, 12]: 107.13 ± 2.84 mg/dL
glucose concentration in blood [2, 13]: 227.50 ± 20.57 mg/dL
glucose concentration in blood [2, 14]: 187.25 ± 15.16 mg/dL
glucose concentration in blood [2, 15]: 147.25 ± 9.89 mg/dL
glucose concentration in blood [2, 16]: 121.25 ± 8.15 mg/dL
glucose concentration in blood [2, 17]: 106.75 ± 5.65 mg/dL
glucose concentration in blood [2, 18]: 87.13 ± 4.50 mg/dL
effect of drop in blood glucose compared to G8 (excipient control) ([2]; 400 mg/kg (G4, G7)): effect of drop in blood glucose could be observed
glucose concentration in blood [2, 19]: 104.75 ± 3.98 mg/dL
glucose concentration in blood [2, 20]: 187.38 ± 10.32 mg/dL
glucose concentration in blood [2, 21]: 167.63 ± 7.04 mg/dL
glucose concentration in blood [2, 22]: 135.63 ± 5.53 mg/dL
glucose concentration in blood [2, 23]: 110.50 ± 4.78 mg/dL
glucose concentration in blood [2, 24]: 87.88 ± 9.90 mg/dL
glucose concentration in blood [2, 25]: 64.38 ± 7.69 mg/dL
Hygroscopicity ([3]; 1 day): 6.29%
Hygroscopicity ([3]; 2 days): 11.86%
Hygroscopicity ([3]; 3 days): 23.3%
Hygroscopicity ([3]; 6 days): 60.33%
Hygroscopicity ([3]; 9 days): 68.78%
glucose concentration in blood ([4]; alloxan rats, 0 hours): 13.8 mmol/L
glucose concentration in blood ([4]; alloxan rats, 2 hours): 7.8 mmol/L
glucose concentration in blood ([4]; alloxan rats, 4 hours): 6.4 mmol/L
glucose concentration in blood ([4]; alloxan rats, 6 hours): 8.6 mmol/L
glucose concentration in blood ([4]; alloxan rats, 8 hours): 7.9 mmol/L
glucose concentration in blood ([4]; alloxan rats, 10 hours): 9.4 mmol/L

CC(=O)O [Acetic acid]
Dose (TDLo) [5]: 1,470 μg/kg

CC(=O)O.CN(C)C(=N)NC(=N)N [Metformin acetate, N,N-dimethyl imidodicarbonimidic diamide acetate]
effect of drop in blood glucose ([2]; 100 mg/kg (G2), 240 minutes): effect of drop in blood glucose could be observed
glucose concentration in blood [2, 6]: 101.63 ± 4.94 mg/dL
glucose concentration in blood [2, 7]: 212.00 ± 15.68 mg/dL
glucose concentration in blood [2, 8]: 170.75 ± 17.38 mg/dL
glucose concentration in blood [2, 9]: 134.50 ± 15.64 mg/dL
glucose concentration in blood [2, 10]: 106.63 ± 10.44 mg/dL
glucose concentration in blood [2, 11]: 63.63 ± 4.94 mg/dL
effect of drop in blood glucose ([2]; 200 mg/kg (G3), 120 minutes): effect of drop in blood glucose could be observed
effect of drop in blood glucose ([2]; 200 mg/kg (G3), 240 minutes): effect of drop in blood glucose could be observed
effect of drop in blood glucose compared to G8 (excipient control) ([2]; 200 mg/kg (G3, G6)): effect of drop in blood glucose could be observed
glucose concentration in blood [2, 12]: 101.63 ± 4.58 mg/dL
glucose concentration in blood [2, 13]: 213.13 ± 11.36 mg/dL
glucose concentration in blood [2, 14]: 201.00 ± 21.78 mg/dL
glucose concentration in blood [2, 15]: 165.75 ± 15.91 mg/dL
glucose concentration in blood [2, 16]: 129.63 ± 8.08 mg/dL
glucose concentration in blood [2, 17]: 106.38 ± 4.07 mg/dL
glucose concentration in blood [2, 18]: 80.00 ± 3.73 mg/dL
effect of drop in blood glucose compared to G8 (excipient control) ([2]; 400 mg/kg (G4, G7)): effect of drop in blood glucose could be observed
glucose concentration in blood [2, 19]: 104.13 ± 6.53 mg/dL
glucose concentration in blood [2, 20]: 190.25 ± 16.05 mg/dL
glucose concentration in blood [2, 21]: 169.63 ± 21.19 mg/dL
glucose concentration in blood [2, 22]: 141.50 ± 18.24 mg/dL
glucose concentration in blood [2, 23]: 106.38 ± 13.75 mg/dL
glucose concentration in blood [2, 24]: 86.25 ± 11.25 mg/dL
glucose concentration in blood [2, 25]: 69.25 ± 7.96 mg/dL
effect of drop in blood glucose compared with metformin hydrochloride ([2]; 200 and 400 mg/kg dosage group, 20 to 60 minutes after administration of sucrose): higher effect of drop in blood glucose than that of the metformin hydrochloride
effect of drop in blood glucose after meal compared with metformin hydrochloride ([2]; overall inference from Table 11): more excellent than that of the metformin hydrochloride
hygroscopicity compared with metformin hydrochloride [3]: lower than that of the metformin hydrochloride
Hygroscopicity ([3]; 1 day): 0.35%
Hygroscopicity ([3]; 2 days): 0.93%
Hygroscopicity ([3]; 3 days): 1.37%
Hygroscopicity ([3]; 6 days): 11.21%
Hygroscopicity ([3]; 9 days): 23.32%
decrease of glucose concentration versus control group ([4]; 10 hours after administration): about 7.5 mmol/L
effect of drop in blood glucose compared with metformin hydrochloride ([4]; alloxan rats): more excellent than that of metformin hydrochloride
glucose concentration in blood ([4]; alloxan rats, 0 hours): 13.8 mmol/L
glucose concentration in blood ([4]; alloxan rats, 2 hours): 6.4 mmol/L
glucose concentration in blood ([4]; alloxan rats, 4 hours): 7.5 mmol/L
glucose concentration in blood ([4]; alloxan rats, 6 hours): 6.8 mmol/L
glucose concentration in blood ([4]; alloxan rats, 8 hours): 5.9 mmol/L
glucose concentration in blood ([4]; alloxan rats, 10 hours): 6.9 mmol/L
